A word on the solubility: it is the concentration that dissolves in the medium under given conditions. Low readings indicate a poorly soluble substance, high ones a readily soluble substance. What is called EC50 is the midpoint of the concentration-response curve. By Papp is commonly meant the rate of passage across a membrane or cell layer, normalised by area and donor concentration. Read a low Papp as poor permeation.

This note sets out measurements from patent publication US20210188843A1, “QUINOLINE COMPOUNDS AND THEIR PREPARATION AND USE AS ANTIMALARIAL AGENTS” (The United States of America,as represented by the …, priority 2018, published 2021).

Data set [1] is described as follows: Microsomal stability (rat). Conditions: rat microsomes, Table 1, read-out: Microsomal Stability (rat) T1/2. It counts as in vitro ADME.
The next data set is described as follows: Solubility pH 7.4. It counts as physicochemical. The following applies: aqueous buffer, Table 1.
Data set [2] has as its system Asexual parasites of P. falciparum strain 3D7. The experiment in a line: In vitro drug activity on asexual parasites (SYBR Green assay). It counts as cell-based. Conditions: Plasmodium falciparum; Table 1; P. falciparum 3D7 asexual stage, 72 h; read-out: Asexual EC50. An outline of the steps:
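3D7 asexual cultures at 0.5% parasitemia and 2% hematocrit were exposed to drug (DMSO <0.5%) for 72 h under standard culture conditions, in duplicate with no-drug and RBC-only controls. After freeze-thaw lysis, SYBR Green I lysis buffer was added for 30 min at room temperature; fluorescence was read at 490 nm excitation/520 nm emission.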

A further data set is described as follows: PAMPA permeability. It counts as in vitro ADME. Conditions: Table 1.

For the molecule `CNCc1cccc(-n2c(=N)n(C)c3cnc4ccc(-c5ccc(Cl)cc5)cc4c32)c1` [Compound 67, 1-(3-(8-(4-chlorophenyl)-2-imino-3-methy-2,3-dihydro-H-imidazo[4,5-c]quinolin-1-yl)phenyl)-N-methylmethanamine], in data set [1], the half-life is greater than 30 min. The same molecule had a solubility in the data set “Solubility pH 7.4” greater than 42 µg/mL. Also, in data set [2], the EC50 was 2990 nM. In “PAMPA permeability”, this molecule showed an apparent permeability coefficient (Papp) of 48.1 ×10⁻⁶ cm/s.
In the same order, the values of `Cc1ccc(C#N)cc1-n1c(=N)n(C)c2cnc3ccc(-c4cnc5ccccc5c4)cc3c21` [Compound 105, 3-(2-imino-3-methyl-8-(quinolin-3-yl)-2,3-dihydro-1H-imidazo[4,5-c]quinolin-1-yl)-4-methylbenzonitrile] are greater than 30 min, greater than 44 µg/mL, 714 nM and 1150 ×10⁻⁶ cm/s.
